# From USRE39197E1, “Cell adhesion-inhibiting antiinflammatory and immune-suppressive compounds” (Abbott Laboratories, priority 1998, dated 2006)
# pIC50: −log10 of the molar value.
# Experiments:
# [1] = system: adherence of JY-8 cells (expressing LFA-1) to immobilized ICAM-1; test: ICAM-1/JY-8 Cell Adhesion Assay; assay type: cell-based, human
# Procedure: ICAM-1/JT-8 Cell Adhesion Assay
# For measurment measurement of inhibotory inhibitory activity in the cell-based adhesion assay, 96-well microtiter plates are were coated with 70 μL of recombinat recombinant ICAM-1/Ig (ICOS Corporation) at a concentration of 5 μg/mL in D-PBS w/o without Ca^++ or Mg++ or Mg^++ overnight at 4° C. The wells are were then washed twice with D-PBS and blocked by addition of 200 μL of D-PBS, 5% fish skin gelatin by incubation for 1 hour at room temperature. […] The percent inhibition of a candidate compound at a given concentration is was calculated using the following equation: [formula] and these concentration/inhibition data are were used to generate does response curves, from which IC50 values are were derived.
# [2] = system: adhesion of JY-8 cells (expressing LFA-1) to immobilized ICAM-3; test: ICAM-3/JY-8 Cell Adhesion Assay; assay type: cell-based, human; settings: 0.6 μM compound, JY-8 cells on immobilized ICAM-3/Ig; for inhibition at 0.6 µM: Homo sapiens
# Procedure: As such, it is expected that these compounds should block the interaction of LFA-1 with other CAM's. […] Compounds of the present invention may be evaluated for their ability to block the adhesion of JY-8 cells (a human EBV-transformed B cell line expressing LFA-1 on its surface) to immobilized ICAM-3, as follows:
# ICAM-3/JY-8 Cell Adhesion Assay
# For measurement of inhibitory activity in the cell-based adhesion assay, 96-well microtiter plates are were coated with 50 μL of recombinant ICAM-3/Ig (ICOS Corporation) at a concentration of 10 μg/mL in D-PBS w/o without Ca^++ or Mg^++ overnight at 4° C. The wells are were then washed twice with D-PBS, blocked by addition of 100 μL of D-PBS, 1% bovine serum albumin (BSA) by incubation for 1 hour at room temperature, and washed once with RPMI-1640/5% heat-inactivated fetal bovine serum (adhesion buffer). Dilutions of compounds to be assayed for ICAM-3/LFA-1 antagonistic activity are were prepared in adhesion buffer from 10 mM stock solutions in DMSO and 100 μL are were added to duplicate wells. JY-8 cells (a human EBV-transformed B cell line expressing LFA-1 on its surface; 100 μL at 0.75×10^6 cells/ml mL in adhesion buffer) are were then added to the wells. Microtiter plates are were incubated for 30 minutes at room temperature; the adherent cells are were then fixed with 50 μL of 14% glutaraldehyde/D-PBS and were incubated for an additional 90 minutes. The wells are were washed gently with dH2O; 50 μL of dH2O is was added, following followed by 50 μL of 1% crystal violet. After 5 minutes the plates are were washed 3× times with dH2O; 75 μL of dH2O and 225 μL of 95% EtOH are were added to each well to extract the crystal violet from the cells. Absorbance is was measured at […] in an ELISA plate reader. The percent inhibition of a candidate compound is was calculated using the following equation. [formula]
# [3] = biological target: T1, interaction between the integrin LFA-1 and its adhesion partner ICAM-1 (Homo sapiens, UniProt P20701); test: ICAM-1/LFA-1 Biochemical Interaction Assay; assay type: binding; settings: 4 μM compound; recombinant LFA-1, biotinylated ICAM-1/Ig
# T1 construct: Recombinant LFA-1 (100 μL of 0.7 μg/ml mL, ICOS Corporation) in D-PBS; purchased ICOS Corporation
# T1 sequence (P20701 26-1170): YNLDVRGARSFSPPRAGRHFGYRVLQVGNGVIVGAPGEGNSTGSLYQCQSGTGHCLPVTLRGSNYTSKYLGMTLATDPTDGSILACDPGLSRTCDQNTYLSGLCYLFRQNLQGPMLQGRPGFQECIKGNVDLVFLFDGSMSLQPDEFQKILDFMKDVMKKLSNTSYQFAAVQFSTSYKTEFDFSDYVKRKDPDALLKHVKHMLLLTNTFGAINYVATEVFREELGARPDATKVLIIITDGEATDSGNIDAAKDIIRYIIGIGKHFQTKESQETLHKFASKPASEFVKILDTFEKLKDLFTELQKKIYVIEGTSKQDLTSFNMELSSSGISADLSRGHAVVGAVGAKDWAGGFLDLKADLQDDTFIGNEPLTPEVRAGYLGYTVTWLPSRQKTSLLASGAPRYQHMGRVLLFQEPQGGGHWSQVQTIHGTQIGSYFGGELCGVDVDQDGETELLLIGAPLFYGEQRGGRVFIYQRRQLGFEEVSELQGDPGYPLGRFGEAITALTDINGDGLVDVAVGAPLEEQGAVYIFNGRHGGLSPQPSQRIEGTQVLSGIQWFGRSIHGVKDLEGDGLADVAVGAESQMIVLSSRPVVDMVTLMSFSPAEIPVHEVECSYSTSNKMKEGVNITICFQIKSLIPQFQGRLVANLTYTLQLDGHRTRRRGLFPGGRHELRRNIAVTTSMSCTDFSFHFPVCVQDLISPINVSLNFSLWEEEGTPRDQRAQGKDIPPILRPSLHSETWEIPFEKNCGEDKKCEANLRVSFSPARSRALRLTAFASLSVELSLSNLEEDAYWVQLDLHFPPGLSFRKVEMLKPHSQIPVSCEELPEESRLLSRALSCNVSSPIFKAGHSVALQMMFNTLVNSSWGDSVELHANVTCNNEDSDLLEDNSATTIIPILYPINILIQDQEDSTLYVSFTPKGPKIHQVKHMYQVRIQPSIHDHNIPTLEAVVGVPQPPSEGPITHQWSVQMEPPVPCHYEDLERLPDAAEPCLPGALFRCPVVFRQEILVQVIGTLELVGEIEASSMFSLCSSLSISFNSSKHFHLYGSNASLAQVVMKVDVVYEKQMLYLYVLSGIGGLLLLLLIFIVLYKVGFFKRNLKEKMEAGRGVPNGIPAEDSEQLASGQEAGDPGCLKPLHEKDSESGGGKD
# T1 sequence (P05107 23-769 partner): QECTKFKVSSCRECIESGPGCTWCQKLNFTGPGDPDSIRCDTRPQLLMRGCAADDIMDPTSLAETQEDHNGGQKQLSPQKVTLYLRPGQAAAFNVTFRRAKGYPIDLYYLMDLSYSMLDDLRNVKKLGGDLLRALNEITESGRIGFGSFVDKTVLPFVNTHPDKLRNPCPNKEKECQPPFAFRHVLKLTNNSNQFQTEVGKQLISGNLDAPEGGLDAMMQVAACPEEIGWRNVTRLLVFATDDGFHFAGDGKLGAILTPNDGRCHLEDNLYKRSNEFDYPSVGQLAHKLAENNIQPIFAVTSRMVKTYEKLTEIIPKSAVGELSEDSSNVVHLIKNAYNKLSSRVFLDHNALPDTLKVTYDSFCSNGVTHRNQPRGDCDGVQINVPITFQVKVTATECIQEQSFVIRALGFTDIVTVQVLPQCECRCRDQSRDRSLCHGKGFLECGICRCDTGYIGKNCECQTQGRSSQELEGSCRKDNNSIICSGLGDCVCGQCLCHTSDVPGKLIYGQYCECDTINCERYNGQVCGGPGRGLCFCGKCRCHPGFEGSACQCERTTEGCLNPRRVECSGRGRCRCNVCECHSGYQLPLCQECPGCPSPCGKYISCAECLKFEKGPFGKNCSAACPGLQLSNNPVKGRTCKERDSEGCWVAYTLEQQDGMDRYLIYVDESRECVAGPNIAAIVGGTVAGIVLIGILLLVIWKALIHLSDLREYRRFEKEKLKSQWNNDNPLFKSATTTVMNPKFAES
# Procedure: Compounds that antagonize the interaction between ICAM-1 and LFA-1 can be identified, and their activities quantitated, using both biochemical and cell-based adhesion assays. A primary biochemical assay measures the ability of the compound in question to block the interaction between the integrin LFA-1 and its adhesion partner ICAM-1, as described below:
# ICAM-1/LFA-1 Biochemical Interaction Assay
# In the biochemical assay, 100 μL of anti-LFA-1 antibody (ICOS Corporation) at a concentration of 5 μg/ml mL in Dulbecco's phosphate-buffered saaline (D-PBS) is used to coat wells of a 96-well microtiter plate overnight at 4° C. The wells are were then washed twice with wash buffer (D-PBS w/o Ca^++ or Mg^++, 0.05% Tween 20) and blocked by addition of 200 μL of D-PBS, 5% fish skin gelatin. Recombinant LFA-1 (100 μL of 0.7 μg/ml mL, ICOS Corporation) in D-PBS is was then added to each well. Incubation continues continued for 1 hour at room temperature and the wells are were washed twice with wash buffer. Serial dilutions of compounds being assayed as ICAM-1/LFA-1 antagonists, were prepared as 10 mM stock solutions in dimethyl sulfoxide (DMSO), are were diluted in D-PBS, 2 mM MgCl2, 1% fish skin gelatin and 50 μL of each dilution was added to duplicate wells. This is was followed by the addition of 50 μL of 0.8 μg/ml mL biotinylated recombinant ICAM-1/Ig (ICOS Corporation) to the wells and the plates are were incubated at room temperature for 1 hour. The wells are were then washed twice with wash buffer and 100 μL of Europium-labeled Streptavidin (Wallac Oy) diluted 1:100 in Delfia assay buffer (Wallac Oy), are was then added to the wells. Incubation proceeds proceeded for 1 hour at room temperature. The wells are were washed eight times with wash buffer and 100 μL of enhancement solution (Wallac Oy, cat. No. 1244-105) are was added to each well. Incubation proceeds proceeded for 5 minutes with constant mixing. Time-resolved fluorimetry measurements are were made using the a Victor 1420 Multilabel Counter (Wallac Oy) and the percent inhibition of each candidate compound is was calculated using the following equation: [formula] where “background” refers to wells that are were not coated with anti-LFA-1 antibody.
# [4] = JY-8 cells on immobilized ICAM-1/Ig
# [5] = Homo sapiens, JY-8, JY-8 cells on immobilized ICAM-1/Ig
Structure (SMILES),"pIC50 [1, 4]",inhibition at 4 µM [3] [%],"pIC50 [1, 5]",% inhibition @ 4 μM [3] [%],other results
"CC(=O)N1CCN(C(=O)/C=C/c2ccc(Sc3ccc(Cl)cc3Cl)c([N+](=O)[O-])c2)CC1 [Example 32, (2,4-Dichlorophenyl)[2-nitro-4-(E-((4-acetylpiperazin-1-yl)carbonyl)ethenyl)phenyl]sulfide]",,92,,,inhibition at 0.6 µM [2]: 100%
"CC(=O)N1CCN(C(=O)/C=C/c2ccc(Sc3ccccc3C(C)(C)C)c([N+](=O)[O-])c2)CC1 [Example 51, (2-tert-Butylphenyl)[2-nitro-4-(E-((4-acetylpiperazin-1-yl)carbonyl)ethenyl)phenyl]sulfide]",,84,6.16,,
"CC(=O)N1CCN(C(=O)/C=C/c2ccc(Sc3ccccc3CO)c([N+](=O)[O-])c2)CC1 [Example 48, (2-Hydroxymethylphenyl)[2-nitro-4-(E-((4-acetylpiperazin-1-yl)carbonyl)ethenyl)phenyl]sulfide]",,89,6.70,,
"CC(C)(C)OC(=O)N1CCN(C(=O)/C=C/c2ccc(Sc3ccc(Cl)cc3Cl)c([N+](=O)[O-])c2)CC1 [Example 37, (2,4-Dichlorophenyl)[2-nitro-4-(E-((4-(tert-butoxycarbonyl)piperazin-1-yl)carbonyl)ethenyl)phenyl]sulfide]",,91,6.85,,
"O=C(O)C(=O)N1CCN(C(=O)/C=C/c2ccc(Sc3ccc(Cl)cc3Cl)c([N+](=O)[O-])c2)CC1 [Example 43, (2,4-Dichlorophenyl)[2-nitro-4-(E-((4-(carboxycarbonyl)piperazin-1-yl)carbonyl)ethenyl)phenyl]sulfide]",,82,7.00,,
"O=C(/C=C/c1ccc(Sc2ccccc2CO)c(Cl)c1)N1CCOCC1 [Example 11, (2-(Hydroxymethyl)phenyl)[2-chloro-4-(E-((1-morpholinyl)carbonyl)ethenyl)phenyl]sulfide]",6.59,,,87,
"Cc1ccccc1Sc1ccc(/C=C/C(=O)N2CCN(c3ccccc3)CC2)cc1C(F)(F)F [Example 29, (2-Methylphenyl)[2-trifluoromethyl-4-(E-((4-phenylpiperazin-1-yl)carbonyl)ethenyl)phenyl]sulfide]",,84,6.80,,
"CC(=O)N1CCN(C(=O)/C=C/c2ccc(Sc3ccc(C)cc3)c([N+](=O)[O-])c2)CC1 [Example 36, (4-Methylphenyl)[2-nitro-4-(E-((4-acetylpiperazin-1-yl)carbonyl)ethenyl)phenyl]sulfide]",,90,6.49,,
O=C(/C=C/c1ccc(Sc2ccccc2Br)c(Cl)c1)N1CCCCC1 [Example 19],6.35,,,93,
"CN1CCN(C(=O)/C=C/c2ccc(Sc3ccc(Cl)cc3Cl)c(Cl)c2)CC1 [Example 8, (2,4-Dichlorophenyl)[2-chloro-4-(E-((4-methylpiperazin-1-yl)carbonyl)ethenyl)phenyl]sulfide]",,74,5.54,,
"O=C(/C=C/c1ccc(Sc2ccc(Cl)cc2Cl)c(Cl)c1)NCCCN1CCCC1=O [Example 6, (2,4-Dichlorophenyl)[2-chloro-4-(E-((3-(2-oxopyrrolidin-1-yl)propylamino)carbonyl)ethenyl)phenyl]sulfide]",,85,6.18,,
"O=C(/C=C/c1ccc(Sc2ccc(Cl)cc2Cl)c(Cl)c1)N1CCOCC1 [Example 7, (2,4-Dichlorophenyl)[2-chloro-4-(E-((1-morpholinyl)carbonyl)ethenyl)phenyl]sulfide]",5.92,,,87,
"CS(=O)(=O)N1CCN(C(=O)/C=C/c2ccc(Sc3ccc(Cl)cc3Cl)c([N+](=O)[O-])c2)CC1 [Example 39, (2,4-Dichlorophenyl)[2-nitro-4-(E-((4-(methanesulfonyl)piperazin-1-yl)carbonyl)ethenyl)phenyl]sulfide]",,86,6.60,,
"O=C(/C=C/c1ccc(Sc2ccccc2Br)c(Cl)c1)N1CCc2ccccc2C1 [Example 25, (2-Bromophenyl)[2-chloro-4-(E-((2-tetrahydroisoquinolinyl)carbonyl)ethenyl)phenyl]sulfide]",4.96,,,82,
"CC(=O)N1CCN(C(=O)/C=C/c2ccc(Sc3ccccc3C(C)C)c([N+](=O)[O-])c2)CC1 [Example 50, (2-iso-Propylphenyl)[2-nitro-4-(E-((4-acetylpiperazin-1-yl)carbonyl)ethenyl)phenyl]sulfide]",,,8.00,,inhibition at 0.6 µM [2]: 100%

# The next lines start with results.
"pIC50 [1, 4]",inhibition at 4 µM [3] [%],"pIC50 [1, 5]",% inhibition @ 4 μM [3] [%],Structure (SMILES),other results
6.44,,,,"O=C(/C=C/c1ccc(Sc2ccccc2CN2CCN(Cc3ccc4c(c3)OCO4)CC2)c(Cl)c1)N1CCOCC1 [Example 54, (2-(4-(1,3-Benzodioxolyl-5-methyl)piperazin-1-ylmethyl)phenyl)[2-chloro-4-(E-((1-morpholinyl)carbonyl)ethenyl)phenyl]sulfide]",% inhibition @ 0.6 μM [2]: 100%
6.47,,,,"O=C(/C=C/c1ccc(Sc2ccccc2NCCCN2CCOCC2)c(Cl)c1)N1CCOCC1 [Example 62, (2-((3-(1-Morpholinyl)propyl)-1-amino)phenyl)[2-chloro-4-(E-((1-morpholinyl)carbonyl)ethenyl)phenyl]sulfide]",% inhibition @ 0.6 μM [2]: 100%
6.70,,,,"O=C(/C=C/c1ccc(Sc2ccccc2/C=C/C(=O)N2CCOCC2)c(Cl)c1)N1CCOCC1 [Example 59, (2-(E-((1-Morpholinyl)carbonyl)ethenyl)phenyl)[2-chloro-4-(E-((1-morpholinyl)carbonyl)ethenyl)phenyl]sulfide]",% inhibition @ 0.6 μM [2]: 100%
7.00,,,82,"CC(C)NC(=O)CN1CCN(Cc2ccccc2Sc2ccc(/C=C/C(=O)N3CCOCC3)cc2Cl)CC1 [Example 55, (2-(4-(iso-Propylaminocarbonylmethyl)piperazin-1-ylmethyl)phenyl)[2-chloro-4-(E-((1-morpholinyl)carbonyl)ethenyl)phenyl]sulfide]",
6.66,,,90,"O=Cc1ccccc1Sc1ccc(/C=C/C(=O)N2CCOCC2)cc1Cl [Example 57, (2-Formylphenyl)[2-chloro-4-(E-((1-morpholinyl)carbonyl)ethenyl)phenyl]sulfide]",
6.29,,,83,"CCOC(=O)CN(C)Cc1ccccc1Sc1ccc(/C=C/C(=O)N2CCOCC2)cc1Cl [Example 56, (2-((N-Ethoxycarbonylmethyl-N-methyl)aminomethyl)phenyl)[2-chloro-4-(E-((1-morpholinyl)carbonyl)ethenyl)phenyl]sulfide]",
